The text below walks through data of patent publication US7288659B2, “Acylaminothiazole derivatives, their preparation and therapeutic use” (Sanofi-Aventis, priority 2001, dated 2007).

Take `Cc1ccc(CC(=O)N[C@@H](C)C(=O)Nc2ncc(-c3ccccc3COC3CCCCC3)s2)cc1` [compound 17, (2S)-N-(5-{2-[(cyclohexyloxy)methyl]phenyl}-1,3-thiazol-2-yl)-2-{[2-(4-methylphenyl)acetyl]amino}-propanamide]: the melting point (commonly the temperature, or range, at which the solid turns liquid) stood at 239 °C.

As to `CCC[C@H](NC(=O)[C@H](O)c1cc(F)cc(F)c1)C(=O)Nc1ncc(-c2ccccc2COC2CCCCC2)s1` [compound 56, (2S)-N-(5-{2-[(cyclohexyloxy)methyl]phenyl}-1,3-thiazol-2-yl)-2-{[(2R)-2-(3,5-difluorophenyl)-2-hydroxyacetyl]amino}pentanamide], the melting point was 112 °C. For `CC(NC(=O)Cc1cc(F)cc(F)c1)C(=O)Nc1ncc(-c2ccccc2COC2CCCCC2)s1` (stereo not drawn) [Compound No. 2, N-(5-{2-[(cyclohexyloxy)methyl]phenyl}-1,3-thiazol-2-yl)-2-{[2-(3,5-difluorophenyl)acetyl]amino}propanamide] the value was 126 °C.

For `CCOCc1ccccc1-c1cnc(NC(=O)[C@H](C)NC(=O)Cc2cc(F)cc(F)c2)s1` [compound 41, (2S)-2-{[2-(3,5-difluorophenyl)acetyl]amino)-N-(5-[2-(ethoxymethyl)phenyl]-1,3-thiazol-2-yl}propanamide], the melting point was 173 °C. In turn, `CCC[C@H](NC(=O)C(C)c1cc(F)cc(F)c1)C(=O)Nc1ncc(-c2ccccc2COC2CCCCC2)s1` (stereo partly drawn) [Compound No. 58, (2S)-N-(5-{2-[(cyclohexyloxy)methyl]phenyl}-1,3-thiazol-2-yl)-2-{[2-(3,5-difluorophenyl)propanoyl]-amino}pentanamide] came in with a melting point of 88 °C. Under `CCC[C@H](NC(=O)[C@H](O)c1cc(F)cc(F)c1)C(=O)Nc1nc(C)c(-c2ccccc2COC2CCCCC2)s1` [compound 53, (2S)-N-(5-{2-[(cyclohexyloxy)methyl]phenyl}-4-methyl-1,3-thiazol-2-yl)-2-{[(2R)-2-(3,5-difluorophenyl)-2-hydroxyacetyl]amino}pentanamide] stands 99.4 °C. In turn, `CC[C@H](NC(=O)Cc1cc(F)cc(F)c1)C(=O)Nc1nc(C)c(-c2ccccc2COC(C)C)s1` [compound 69, (2S)-2-{[2-(3,5-difluorophenyl)acetyl]amino}-N-{5-[2-(isopropoxymethyl)phenyl]-4-methyl-1,3-thiazol-2-yl}butanamide] returned a melting point of 79 °C. Under `CC(C)COCc1ccccc1-c1cnc(NC(=O)C(C)NC(=O)Cc2cc(F)cc(F)c2)s1` (stereo not drawn) [compound 4, 2-{[2-(3,5-difluorophenyl)acetyl]amino}-N-{5-[2-(isobutoxymethyl)phenyl]-1,3-thiazol-2-yl}propanamide] stands 181 °C; under `C[C@H](NC(=O)Cc1cc(F)cc(F)c1)C(=O)Nc1ncc(-c2ccc(COCC3CCCCC3)cc2)s1` [compound 46, (2S)-N-(5-{4-[(cyclohexylmethoxy)methyl]phenyl}-1,3-thiazol-2-yl)-2-{[2-(3,5-difluorophenyl)acetyl]-amino}propanamide], 166 °C.
